# Reference: PMC3172288, “RLIP76, a Glutathione-Conjugate Transporter, Plays a Major Role in the Pathogenesis of Metabolic Syndrome” (PLoS ONE, 2011)
# Legend:
# RLIP76 [1] = molecular target: T1, RLIP76 (Homo sapiens, UniProt Q15311); assay: ATP-dependent uptake of 3H-GSHNE into RLIP76 proteoliposomes; assay type: biochemical; details: 10 µM, labelled compound, 37 °C
# T1 construct: gene RALBP1; purified recombinant RLIP76 reconstituted in proteoliposomes
# T1 sequence (Q15311 2-655): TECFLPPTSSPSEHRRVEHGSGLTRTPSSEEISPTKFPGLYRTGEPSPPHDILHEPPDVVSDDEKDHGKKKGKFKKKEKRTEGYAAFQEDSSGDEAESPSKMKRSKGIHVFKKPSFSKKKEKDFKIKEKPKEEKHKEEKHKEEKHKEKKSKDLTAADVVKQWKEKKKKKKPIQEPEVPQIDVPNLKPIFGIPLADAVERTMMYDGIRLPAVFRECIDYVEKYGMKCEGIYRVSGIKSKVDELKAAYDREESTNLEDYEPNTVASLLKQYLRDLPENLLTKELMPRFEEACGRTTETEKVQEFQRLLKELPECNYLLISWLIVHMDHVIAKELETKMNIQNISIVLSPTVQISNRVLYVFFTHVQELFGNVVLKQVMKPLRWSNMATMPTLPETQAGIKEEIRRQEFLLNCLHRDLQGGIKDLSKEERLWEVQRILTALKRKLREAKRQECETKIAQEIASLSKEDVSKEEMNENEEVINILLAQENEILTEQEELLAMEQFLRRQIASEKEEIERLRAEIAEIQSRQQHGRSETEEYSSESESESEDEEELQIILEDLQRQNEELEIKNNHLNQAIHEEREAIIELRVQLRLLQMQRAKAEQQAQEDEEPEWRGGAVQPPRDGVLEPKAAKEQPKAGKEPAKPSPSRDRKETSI
# RLIP76 [2] = molecular target: T1, RLIP76; assay: inhibition of ATP-dependent 3H-GSHNE uptake into RLIP76 proteoliposomes; assay type: biochemical; details: 10 µM 3H-GSHNE, 0-100 µM drug, 30 min incubation at 37 °C
ATP-dependent uptake of 3H-GSHNE into RLIP76 proteoliposomes (RLIP76 [1]),SMILES,inhibition of ATP-dependent 3H-GSHNE uptake into RLIP76 proteoliposomes (RLIP76 [2])
ATP-dependent uptake of ^3H-GSHNE,CCCCCC(O)C(CC=O)SC[C@H](NC(=O)CC[C@H](N)C(=O)O)C(=O)NCC(=O)O (stereo partly drawn) [3H-GSHNE],
,CN(C)C(=N)NC(=N)N [metformin],metformin inhibits only half of the transport activity
,CN(CCOc1ccc(CC2SC(=O)NC2=O)cc1)c1ccccn1 (stereo not drawn) [rosiglitazone],Inhibition of the transport activity of purified recombinant human RLIP76 towards physiological substrate
